This is an account of results in patent publication US5614625A, “Hydroxamic acid derivatives with tricyclic substitution” (Hoffmann-La Roche Inc., priority 1994, dated 1997).

SMILES strings stand for the structures. pIC50: −log10 of the molar value.

The target in the assay is T1, collagenase obtained from a culture of human synovial fibroblasts (Homo sapiens, UniProt P03956).
T1 construct: endogenous in cells; host or cells: human synovial fibroblast culture (conditioned medium)
T1 sequence (P03956 100-469): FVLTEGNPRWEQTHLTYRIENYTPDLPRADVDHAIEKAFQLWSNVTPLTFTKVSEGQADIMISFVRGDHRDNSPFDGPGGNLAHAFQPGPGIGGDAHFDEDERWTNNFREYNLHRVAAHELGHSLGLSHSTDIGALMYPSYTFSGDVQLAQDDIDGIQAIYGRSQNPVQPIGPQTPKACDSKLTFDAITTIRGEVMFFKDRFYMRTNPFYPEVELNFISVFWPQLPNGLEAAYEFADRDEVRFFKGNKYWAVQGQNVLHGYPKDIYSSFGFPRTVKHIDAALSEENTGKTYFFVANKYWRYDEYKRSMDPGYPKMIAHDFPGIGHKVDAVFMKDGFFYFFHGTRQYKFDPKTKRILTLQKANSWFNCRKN
Put plainly: in vitro collagenase inhibiting activity, microtitre plate assay with 14C-acetylated collagen type I from rat tail tendons as substrate. The assay is classed as biochemical. The conditions noted are these: trypsin-activated pro-collagenase; 14C-acetylated collagen type I substrate; concentration reducing substrate cleavage and solubilization to 50%.
The compound `CNC(=O)[C@H]1N(C(=O)[C@H](CC2CCCC2)C(CN2C(=O)N(C)C(C)(C)C2=O)C(=O)NO)CSC1(C)C` (single isomer, unassigned) [Example 17, 3-[3-cyclopentyl-2(R)-[1(R or S)-(hydroxycarbamoyl)-2-(3,4,4-trimethyl-2,5-dioxo-1imidazolidinyl)ethyl]propionyl]-N,5,5-trimethyl-4(R)-thiazolidinecarboxamide] showed a negative-log IC50 (pIC50) of 8.63.
For `CN1C(=O)N(CC(C(=O)NO)[C@@H](CC2CCC2)C(=O)N2CCCCCCC2)C(=O)C1(C)C` (single isomer, unassigned) [Example 23, 1-[3-cyclobutyl-2(R)-[1(R or S)-(hydroxycarbamoyl)-2-(3,4,4-trimethyl-2,5-dioxo-1-imidazolidinyl)ethyl]propionyl]octahydroazocine] the value was 7.47; for `CN1C(=O)N(CC(C(=O)NO)[C@@H](CC2CCC2)C(=O)N2CCC(O)CC2)C(=O)C1(C)C` (single isomer, unassigned) [Example 5, 1-[3-cyclobutyl-2(R)-[1(R or S)-(hydroxycarbamoyl)-2-(3,4,4-trimethyl-2,5-dioxo-1-imidazolidinyl)ethyl]propionyl]-4-piperidinol], 8.60.
`CN1C(=O)N(CC(C(=O)NO)[C@@H](CC2CCC2)C(=O)N2CCCCC2)C(=O)C1(C)C` (single isomer, unassigned) [Example 4, 1-[3-cyclobutyl-2(R)-[1(R or S)-(hydroxycarbamoyl)-2-(3,4,4-trimethyl-2,5-dioxo-1-imidazolidinyl)ethyl]propionyl]piperidine]: the pIC50 was 8.15.
As for `CN1C(=O)N(CC(C(=O)NO)[C@@H](CC2CCCC2)C(=O)N2CCC(O)CC2)C(=O)C1(C)C` (single isomer, unassigned) [Example 7, 1-[3-cyclopentyl-2[(R)-[1(R or S)-(hydroxycarbamoyl)-2-(3,4,4-trimethyl-2,5-dioxo-1imidazolidinyl)ethyl]propionyl]-4-piperidinol], the figure is 8.19; as for `CN1C(=O)N(CC(C(=O)NO)[C@@H](CC2CC2)C(=O)N2CCC(O)CC2)C(=O)C1(C)C` (single isomer, unassigned) [Example 2, 1-[3-cyclopropyl-2-(R)-[1(R or S)-(hydroxycarbamoyl)-2-(3,4,4-trimethyl-2,5-dioxo-1-imidazolidinyl)ethyl]propionyl]-4-piperidinol], 7.74; as for `CN1C(=O)N(CC(C(=O)NO)[C@@H](CC2CCCC2)C(=O)N2CCOCC2)C(=O)C1(C)C` (single isomer, unassigned) [Example 16, 4-[3-cyclopentyl-2(R)-[1(R or S)-(hydroxycarbamoyl)-2-(3,4,4-trimethyl-2,5-dioxo-1-imidazolidinyl)ethyl]propionyl]morpholine], 8.39.
